Results: publication PMC4725628 (International Journal of Nanomedicine, 2016)

How the values were obtained:
[1] = Bidirectional transport across Caco-2 cell monolayers; assay type: in vitro ADME; conditions: human
[2] = system: Caco-2 cells; test: MTT cytotoxicity assay; assay type: cell-based, human; conditions: 10–200 μg/mL
[3] = MTT cytotoxicity assay; assay type: cell-based, human; conditions: human, Caco-2 cells
[4] = system: Caco-2 cell homogenates; test: Degradation in Caco-2 cell homogenates; assay type: in vitro ADME, human; conditions: 37°C, within 120 minutes
[5] = system: Caco-2 cell monolayers; test: TEER of Caco-2 cell monolayers; assay type: cell-based, human; conditions: Caco-2 monolayers; HM formulations 40 μg/mL, TMC 0.1% w/w
[6] = In vivo pharmacokinetic study in rats; parameters: species or system Sprague Dawley rats
[7] = mice, 60 mg/kg, within 1 hour
[8] = system: Caco-2 cells; test: Uptake into Caco-2 cell monolayers; assay type: in vitro ADME, human
[9] = Sprague Dawley, rat, plasma, po, 60 mg/kg

COc1ccc2c(c1)[nH]c1c(C)nccc12 [HM, Harmine]
Papp at 2 h [1]: > 1 ×10⁻⁶ cm/s | Papp at 2 h, 40 μg/mL [1]: 5.11 ± 0.69 ×10⁻⁶ cm/s | Toxicity to Caco-2 cells [2]: almost no toxicity | viability at 24 h, 200 μg/mL [3]: > 90% | HM degraded [4]: more than 60% | Reduction of TEER [5]: lower than 15% | AUC ([6]; Sprague Dawley, rat, plasma, iv, 20 mg/kg): 12900 ± 1250 ng·h/mL | AUC [6, 9]: 9760 ± 2340 ng·h/mL | Cmax [6, 9]: 3110 ± 320 ng/mL | BA (oral bioavailability) ([6]; rats, IG 60 mg/kg versus HM IV 20 mg/kg): 25.25±6.05% | Decrease of retention amount in the stomach [7]: about 10% | Effect of endocytosis inhibitor CPZ on uptake [8]: did not affect | Effect of energy inhibitor NaN3 on uptake [8]: did not affect | Effect of p-gp inhibitor CyA on uptake [8]: did not affect
